Experimental findings from patent US20180310564A1, “Mesoionic Compound” (Nippon Kayaku Kabushiki Kaisha, priority 2015, published 2018) are described below.

Structures can show the parent of a compound that is named as a salt.

Common to all, as to type: in vivo
Test [1] relates to Brown Planthopper (Nilaparvata lugens). The test can be described thus: Test (root dipping) for controlling brown planthopper. The settings on record: 120 h, root dipping, 5 days after treatment. Here is the method: Ten sampled rice seedlings held with urethane in a glass cylinder having an inner diameter of 4.5 cm and a length of 14 cm were set up in a plastic cup containing 40 mL of chemical solution diluted to a desired concentration. After 2 days, 10 larvae of brown planthoppers in the third instar larva were released in the glass cylinder. The glass cylinder was covered with a lid of medicine paper and kept in a chamber at a constant temperature of 25° C. for rearing.

Test [2] relates to Cotton Aphid (Aphis gossypii). The test can be described thus: Test (foliar spraying) for controlling cotton aphid. The settings on record: 120 h, 5 days after treatment; for mortality at 200 ppm: foliar spraying on cucumber leaf. The method, then: A cucumber leaf cut to a diameter of 3.5 cm was placed on cotton wool moistened with water. Two adult cotton aphids were released there for offspring for 24 hours and the adult insects were then removed. […] After air-drying, the sample with cotton wool was placed in a plastic cup, which was covered with a lid and kept in a chamber at a constant temperature of 25° C. for rearing.

In test [3] the test system is Diamondback Moth (Plutella xylostella). The test can be described thus: Test (foliar dipping) for controlling diamondback moth. The settings on record: 72 h, foliar dipping of cabbage leaf, third instar larvae, 3 days after treatment. Here is the method:
A cabbage leaf cut to a diameter of 5.0 cm was dipped in the diluent of the test compounds diluted to 200 ppm in an amount of 20 mL and air-dried. After air-drying, the cabbage leaf was placed in a plastic cup, and 10 larvae of diamondback moths in the third instar larva were released there. The cup was covered with a lid and kept in a chamber at a constant temperature of 25° C. for rearing.

Test [4] relates to Rice Stem Borer (Chilo suppressalis). The test can be described thus: Test (pot test) for controlling rice stem borer. Particulars: 14 days after treatment. Here is the method: The roots of five sampled rice seedlings were washed with water. The wettable powder prepared in accordance with Formulation Example 2 described above was wrapped in the roots to be planted in a Wagner pot of 1/10000 a. After 4 days from the treatment, a total of […] of rice stem borer were released per strain and reared in a plastic greenhouse with a room temperature set at 25° C. On 14 days after the treatment, the ratio of browning stem of seedlings for each strain and the ratio to untreated ones were calculated. Double system.

Test [5] concerns Sweetpotato whitefly (Bemisia tabaci). The test can be described thus: Test (foliar spraying) for controlling sweetpotato whitefly. Particulars: 120 h, foliar spraying on cucumber leaf, female adults, 5 days after treatment. The method, then: A cucumber leaf cut to a diameter of 6.0 cm was placed on cotton wool moistened with water. The diluent of the test compounds diluted to 200 ppm in an amount of 2 mL was sprayed onto the cucumber leaves with a spray tower. After air-drying, the cucumber leaf was placed in a plastic cup, and 20 female adult sweetpotato whiteflies were released there. The cup was covered with a lid and kept in a chamber at a constant temperature of 25° C. for rearing.

The subject of test [6] is Inedorooimushi (Oulema oryzae). The test can be described thus: Test (pot test) for controlling inedorooimushi. Particulars: larvae released 20 days after treatment, 2 days after release. The method, then: The roots of five sampled rice seedlings were washed with water. The wettable powder prepared in accordance with Formulation Example 2 described above was wrapped in the roots to be planted in a Wagner pot of 1/10000 a. After 20 days from the treatment, 3 larvae of inedorooimushi in the late instar larva were released per strain and reared in a plastic greenhouse with a room temperature set at 25° C. On 2 days after the releasing of the insects, the mortality of the insect was calculated.

Test [7] deals with Southern Yellow thrips (Thrips palmi). The test can be described thus: Test (foliar spraying) for controlling southern yellow thrips. Particulars: 72 h; 200 ppm, foliar spraying on cucumber leaf, first instar larvae, 3 days after treatment. The method, then: A cucumber leaf cut to a diameter of 1.5 cm was placed on cotton wool moistened with water. […] After air-drying, 5 larvae of southern yellow thrips in the first instar larva were released there. The sample with cotton wool was placed in a plastic cup, which was covered with a lid and kept in a chamber at a constant temperature of 25° C. for rearing.

In test [8] the test system is Brown Planthopper (Nilaparvata lugens). The test can be described thus: Residual effect test (field experiment) for brown planthopper. Here is the method: The roots of five sampled rice seedlings were washed with water. Subsequently, 25 mg of the wettable powder prepared in accordance with Formulation Example 2 described above was wrapped in the roots. Each strain was made from the five seedlings. In outdoor artificial paddy fields made from wooden frames having a size of 60 cm by 90 cm, 10 strains were planted, respectively. The artificial paddy field was shielded by an insect screen with a mesh size of 1 mm, so that invasion of harmful insects from the outside was prevented. Into the test system, 40 to 100 adult brown planthoppers were released at fixed intervals so as to cause damage to the rice. On 16 to 51 days after the treatment, the numbers of surviving insects and dead insects were measured to calculate the density index. The density index was obtained from the following expression.

Test [9] concerns Rice Leaf Beetle (Oulema oryzae). The test can be described thus: Test (root dipping) for controlling rice leaf beetle. The settings on record: 4 days after treatment. Here is the method: Ten sampled rice seedlings held with urethane in a glass cylinder having an inner diameter of 4.5 cm and a length of 14 cm were set up in a plastic cup containing 40 mL of chemical solution diluted to a desired concentration. After 2 days, 4 larvae of rice leaf beetle in the late instar larva were released in the glass cylinder. The glass cylinder was covered with a lid of medicine paper and kept in a chamber at a constant temperature of 25° C. for rearing.

Test [10] has as its system Brown Winged Green Stink Bug (Plautia stali). The test can be described thus: Test (greenhouse test) for controlling brown winged green stink bug. The settings on record: 100 ppm sprayed on apple fruit. The method, then:
Using a commercially available hand spray, a chemical solution diluted to a concentration of 100 ppm was sprayed onto an apple fruit (cultivar: Fuji). After air-drying, the apple fruit was placed in a plastic cup, which was allowed to stand still for a specified number of […] in a plastic greenhouse with a room temperature set at 25° C. and with the natural light shining thereon. On 7 days after the treatment, 5 adult brown winged green stink bugs (without distinction between male and female) were released onto the treated fruit. On 4 days after the release of insects, the numbers of death and abnormality were observed and recorded. Triple system. Also, the fruit after examination was immersed in an acidic 0.5% fuchsine solution for 30 minutes, and then washed with water to measure the total number of sapping scars.

Test [11] concerns Brown Planthopper (Nilaparvata lugens). The test can be described thus: Test (foliar dipping) for controlling brown planthopper. Particulars: 120 h, rice seedlings dipped, 5 days after treatment; for mortality at 200 ppm: third instar larvae. The method, then:
[…] After air-drying, the rice seedlings held with urethane in a glass cylinder having an inner diameter of 4.5 cm and a length of 14 cm were set up in a plastic cup containing 40 mL of water. Larvae of brown planthoppers in the third instar larva were released there. The cylinder was covered with a lid of medicine paper and kept in a chamber at a constant temperature of 25° C. for rearing.

Where [12] appears, read: 5 adults released 7 days after treatment, triple system, 4 days after release.

As a reminder, the mortality is the percentage killed. In [1] (0.025 ppm), `Cc1cccc(-c2c([O-])[n+](CCC#N)c3ccccn3c2=O)c1` [Compound 3, 1-(2-cyanoethyl)-2-hydroxy-4-oxo-3-(3-toluyl)-4H-pyrido[1,2-a]pyrimidinium inner salt] displayed a mortality at 0.025 ppm of 50%. The mortality at 0.05 ppm came to 60% in [1] (0.05 ppm) and 80% in [11]. This compound also came in with a mortality at 0.1 ppm in test [1] (0.1 ppm) of 100%. Also, the mortality at 0.8 ppm amounted to 100% in test [2] (0.8 ppm, foliar spraying) and 100% in test [9] (96 h, 0.8 ppm, root dipping). Moreover, the mortality at 200 ppm in [2], in test [3], in [5], in test [7] and in [11] was at least 80% each time. In addition, the “Browning stem ratio (%)” value in [4] (500 g/ha as wettable powder (Formulation Example 2) at rice roots, hatchlings released after 4 days) is reported as 0%. The “Ratio to untreated (%)” value in test [4] (browning stem ratio relative to untreated, 500 g/ha) is 0%. Besides, the mortality at 125 g/ha in [6] (125 g/ha) was determined as 33.3%. Besides, the mortality at 250 g/ha in [6] (250 g/ha) turned out to be 50%. Also, in [6] (500 g/ha as wettable powder at rice roots), the mortality at 500 g/ha came to 100%. The “Density index of Nilaparvata lugens” value in [8] (After 16 days, 25 mg wettable powder (Formulation Example 2) at roots per strain, outdoor artificial paddy field) worked out at 7.7; in test [8] (After 23 days, 25 mg wettable powder at roots per strain, artificial paddy field), 0; in [8] (After 30 days, 25 mg wettable powder at roots per strain, artificial paddy field), 28.4; in test [8] (After 37 days, 25 mg wettable powder at roots per strain, artificial paddy field), 23.8; in [8] (After 44 days, 25 mg wettable powder at roots per strain, artificial paddy field) it was 13.0; in test [8] (After 51 days, 25 mg wettable powder at roots per strain, artificial paddy field), 88.5. The mortality at 1.6 ppm in [9] (1.6 ppm, root dipping of rice seedlings, late instar larvae released after 2 days) is 100%. In addition, the “Number of abnormal insects” value in test [10] (setting [12]) was found to be 7. Besides, in test [10] (setting [12]), the “Number of dead insects” value is on record as 6. Also, the “Number of normal insects” value in [10] (setting [12]) stood at 2. The “Total number of sheaths formed by stylet insertion” value in [10] (fruit stained with fuchsine after examination) is on record as 5. Also, the “Proportion of abnormal insects and dead insects on 4 days after releasing insects (%)” value in test [10] (insects released 7 days after treatment) was 86.7%. The same compound returned a mortality at 0.01 ppm in test [11] of 10%. Moreover, the mortality at 0.02 ppm in [11] is 40%.

On to `N#CCC[n+]1c(O)c(-c2cccc(C(F)F)c2)c(=O)n2ccccc21` [Compound 48, 1-(2-cyanoethyl)-3-(3-difluoromethylphenyl)-2-hydroxy-4-oxo-4H-pyrido[1,2-a]pyrimidinium inner salt], for which the mortality at 200 ppm in [2] is at least 80%. In addition, in [3], the mortality at 200 ppm was at least 80%. In [5], this compound gave a mortality at 200 ppm of at least 80%. In test [11], this compound came in with a mortality at 0.01 ppm of 0%, a mortality at 0.02 ppm of 20%, a mortality at 0.05 ppm of 100% and a mortality at 200 ppm of at least 80%.
